Source: US8962674B2 (Tokyo Institute of Technology, priority 2006, dated 2015)

| SMILES | melting point [°C] |
| --- | --- |
| COc1cc(Br)c(/C=C/C(=O)CC(=O)/C=C/c2ccc(O)cc2)cc1O [CU543, (1E,6E)-1-(2-bromo-5-hydroxy-4-methoxyphenyl)-7-(4-hydroxyphenyl)hepta-1,6-diene-3,5-dione] | 224 to 229 |
| O=C(/C=C/c1ccc(Oc2ccccc2)cc1)CC(=O)/C=C/c1ccc(Oc2ccccc2)cc1 [CU370, (1E,6E)-1,7-bis(4-phenoxyphenyl)hepta-1,6-diene-3,5-dione] | 193 to 196 |
| O=C(/C=C/c1ccc(O)cc1)CC(=O)/C=C/c1ccc(Oc2ccccc2)cc1 [CU213, (1E,6E)-1-(4-hydroxyphenyl)-7-(4-phenoxyphenyl)hepta-1,6-diene-3,5-dione] | 175 to 178 |
| COc1cc(/C=C/C(=O)CC(=O)/C=C/c2ccc(Cl)c(Cl)c2)ccc1O [CU046, (1E,6E)-1-(3,4-dichlorophenyl)-7-(4-hydroxy-3-methoxyphenyl)hepta-1,6-diene-3,5-dione] | 70 to 76 |
| CCCN(CCC)C(=O)c1cccc(/C=C/C(=O)CC(=O)/C=C/c2ccc(O)cc2)c1 [CU474, (1E,6E)-1-[3-(di-n-propylaminocarbonyl)phenyl]-7-(4-hydroxyphenyl)hepta-1,6-diene-3,5-dione] | 159 to 165 |
| CS(=O)(=O)n1cc(/C=C/C(=O)CC(=O)/C=C/c2ccc(O)cc2)c2ccccc21 [CU401, (1E,6E)-1-(4-hydroxyphenyl)-7-[1-(methylsulfonyl)-1H-indol-3-yl]hepta-1,6-diene-3,5-dione] | 196 to 200 |
| O=C(/C=C/c1ccc2[nH]ccc2c1)CC(=O)/C=C/c1ccc2[nH]ccc2c1 [CU382, (1E,6E)-1,7-bis(1H-indol-5-yl)hepta-1,6-diene-3,5-dione] | 263 to 266 |
| O=C(/C=C/c1ccc(O)cc1)CC(=O)/C=C/c1ccccc1Br [CU486, (1E,6E)-1-(2-bromophenyl)-7-(4-hydroxyphenyl)hepta-1,6-diene-3,5-dione] | 155 to 159 |
| COc1cc(N(C)C)ccc1/C=C/C(=O)CC(=O)/C=C/c1ccc(N(C)C)cc1OC [CU410, (1E,6E)-1,7-bis(4-dimethylamino-2-methoxyphenyl)hepta-1,6-diene-3,5-dione] | 76 to 86 |
| Cc1ccc(-n2cccc2/C=C/C(=O)CC(=O)/C=C/c2ccc(O)cc2)cc1 [CU338, (1E,6E)-1-(4-hydroxyphenyl)-7-[1-(4-methylphenyl)-1H-pyrrol-2-yl]hepta-1,6-diene-3,5-dione] | 144 to 150 |
| CSc1ccccc1/C=C/C(=O)CC(=O)/C=C/c1ccc(O)cc1 [CU484, (1E,6E)-1-(4-hydroxyphenyl)-7-[2-(methylthio)phenyl]hepta-1,6-diene-3,5-dione] | 157 to 160 |
| O=C(/C=C/c1cccnc1N1CCN(Cc2ccccc2)CC1)CC(=O)/C=C/c1cccnc1N1CCN(Cc2ccccc2)CC1 [CU385, (1E,6E)-1,7-bis[2-(4-benzylpiperazin-1-yl)pyridin-3-yl]hepta-1,6-diene-3,5-dione] | 150 to 155 |
| O=C(/C=C/c1ccc(O)cc1)CC(=O)/C=C/c1ccc2c(c1)OCO2 [CU215, (1E,6E)-1-(benzo[1,3]dioxol-5-yl)-7-(4-hydroxyphenyl)hepta-1,6-diene-3,5-dione] | 197 to 200 |
| COc1cc(/C=C/C(=O)CC(=O)/C=C/c2ccc(Cl)cc2)ccc1O [CU020, (1E,6E)-1-(4-chlorophenyl)-7-(4-hydroxy-3-methoxyphenyl)hepta-1,6-diene-3,5-dione] | 59 to 61 |
| Cc1ccc(S(=O)(=O)n2ccc3ccc(/C=C/C(=O)CC(=O)/C=C/c4ccc(O)cc4)cc32)cc1 [CU404, (1E,6E)-1-(4-hydroxyphenyl)-7-(1-tosyl-1H-indol-6-yl)hepta-1,6-diene-3,5-dione] | 107 to 112 |
| O=C(/C=C/c1cccc2ncccc12)CC(=O)/C=C/c1cccc2ncccc12 [CU384, (1E,6E)-1,7-bis(quinolin-5-yl)hepta-1,6-diene-3,5-dione] | 170 to 174 |
| COCOc1ccc(OC)cc1/C=C/C(=O)CC(=O)/C=C/c1cc(OC)ccc1OCOC [CU447, (1E,6E)-1,7-bis[5-methoxy-2-(methoxymethoxy)phenyl]hepta-1,6-diene-3,5-dione] | 140 to 143 |
| O=C(/C=C/c1cc(O)ccc1-c1ccccc1)CC(=O)CCc1ccc(O)cc1 [CU541, (E)-1-(4-hydroxybiphenyl-2-yl)-7-(4-hydroxyphenyl)hept-1-ene-3,5-dione] | 148 to 158 |
| CCN(CC)c1ccc(/C=C/C(=O)CC(=O)/C=C/c2ccc(O)cc2)c(OCc2ccc(OC)cc2)c1 [CU448, (1E,6E)-1-[4-diethylamino-2-(4-methoxybenzyloxy)phenyl]-7-(4-hydroxyphenyl)hepta-1,6-diene-3,5-dione] | 71 to 78 |
| CCN(CC)c1ccc(/C=C/C(=O)CC(=O)/C=C/c2ccc(O)cc2)c(OCc2c(F)cccc2Cl)c1 [CU450, (1E,6E)-1-[2-(2-chloro-6-fluorobenzyloxy)-4-diethylaminophenyl]-7-(4-hydroxyphenyl)hepta-1,6-diene-3,5-dione] | 172 to 175 |
| CS(=O)(=O)Oc1ccccc1/C=C/C(=O)CC(=O)/C=C/c1ccc(O)cc1 [CU483, (1E,6E)-1-(4-hydroxyphenyl)-7-[2-(methylsulfonyloxy)phenyl]hepta-1,6-diene-3,5-dione] | 163 to 167 |

| SMILES | melting point [°C] |
| --- | --- |
| COc1cc(/C=C/C(=O)CC(=O)/C=C/c2ccc3ccn(Cc4ccccc4)c3c2)ccc1O [CU443, (1E,6E)-1-(1-benzyl-1H-indol-6-yl)-7-(4-hydroxy-3-methoxyphenyl)hepta-1,6-diene-3,5-dione] | 180 to 184 |
| COc1ccc(/C=C/C(=O)CC(=O)/C=C/c2ccc(O)cc2)c(O)c1 [CU251, (1E,6E)-1-(2-hydroxy-4-methoxyphenyl)-7-(4-hydroxyphenyl)hepta-1,6-diene-3,5-dione] | 137 to 139 |
| O=C(/C=C/c1ccc(O)cc1)CC(=O)/C=C/c1cn(Cc2ccccc2)c2ccccc12 [CU331, (1E,6E)-1-(1-benzyl-1H-indol-3-yl)-7-(4-hydroxyphenyl)hepta-1,6-diene-3,5-dione] | 243 to 249 |
| CCN(CC)c1ccc(/C=C/C(=O)CC(=O)/C=C/c2ccc(N(CC)CC)cc2OC(C)C)c(OC(C)C)c1 [CU433, (1E,6E)-1,7-bis(4-diethylamino-2-isopropyloxyphenyl)hepta-1,6-diene-3,5-dione] | 63 to 66 |
| COc1cc(O)ccc1/C=C/C(=O)CC(=O)CCc1ccc(O)cc1 [CU517, (E)-1-(4-hydroxy-2-methoxyphenyl)-7-(4-hydroxyphenyl)hept-1-ene-3,5-dione] | 131 to 135 |
| CN(C)c1ccccc1/C=C/C(=O)CC(=O)/C=C/c1ccc(O)cc1 [CU495, (1E,6E)-1-(2-dimethylaminophenyl)-7-(4-hydroxyphenyl)hepta-1,6-diene-3,5-dione] | 68 to 72 |
| COc1ccc(/C=C/C(=O)CC(=O)/C=C/c2ccc(N(C)C)cc2[N+](=O)[O-])cc1O [CU197, (1E,6E)-1-(4-dimethylamino-2-nitrophenyl)-7-(3-hydroxy-4-methoxyphenyl)hepta-1,6-diene-3,5-dione] | 183 to 186 |
| O=C(/C=C/c1ccc(O)cc1)CC(=O)/C=C/c1ccc2oc(=O)ccc2c1 [CU445, (1E,6E)-1-(4-hydroxyphenyl)-7-(coumarin-6-yl)hepta-1,6-diene-3,5-dione] | 240 to 246 |
| O=C(/C=C/c1cc2ccccc2[nH]1)CC(=O)/C=C/c1cc2ccccc2[nH]1 [CU393, (1E,6E)-1,7-bis(1H-indol-2-yl)hepta-1,6-diene-3,5-dione] | 264 to 268 |
| O=C(/C=C/c1ccc(O)cc1)CC(=O)/C=C/c1cccnc1N1CCOCC1 [CU337, (1E,6E)-1-(4-hydroxyphenyl)-7-(2-morpholinopyridin-3-yl)hepta-1,6-diene-3,5-dione] | 159 to 165 |
| COc1ccc(/C=C/C(=O)CC(=O)/C=C/c2cccc(OC)c2OC)cc1O [CU071, (1E,6E)-1-(2,3-dimethoxyphenyl)-7-(3-hydroxy-4-methoxyphenyl)hepta-1,6-diene-3,5-dione] | 144 to 148 |
| COc1ccc(/C=C/C(=O)CC(=O)/C=C/c2ccco2)cc1O [CU211, (1E,6E)-1-(furan-2-yl)-7-(3-hydroxy-4-methoxyphenyl)hepta-1,6-diene-3,5-dione] | 120 to 123 |
| COc1ccc(/C=C/C(=O)CC(=O)/C=C/c2ccc(O)cc2Cl)cc1O [CU130, (1E,6E)-1-(2-chloro-4-hydroxyphenyl)-7-(3-hydroxy-4-methoxyphenyl)hepta-1,6-diene-3,5-dione] | 120 to 130 |
| CN(C)c1ccc(/C=C/C(=O)CC(=O)/C=C/c2ccc(N(C)C)cc2[N+](=O)[O-])c([N+](=O)[O-])c1 | 245 to 250 |
| O=C(/C=C/c1ccc(O)cc1)CC(=O)/C=C/c1cc(O)ccc1-c1ccccc1 [CU526, (1E,6E)-1-(4-hydroxybiphenyl-2-yl)-7-(4-hydroxyphenyl)hepta-1,6-diene-3,5-dione] | 179 to 186 |
| COc1ccc(/C=C/C(=O)CC(=O)/C=C/c2ccc(O)c(OC)c2)c(OC)c1 [CU073, (1E,6E)-1-(2,4-dimethoxyphenyl)-7-(4-hydroxy-3-methoxyphenyl)hepta-1,6-diene-3,5-dione] | 108 to 113 |
| COc1cc(/C=C/C(=O)CC(=O)/C=C/c2ccc([N+](=O)[O-])c(OC)c2)ccc1O [CU051, (1E,6E)-1-(4-hydroxy-3-methoxyphenyl)-7-(3-methoxy-4-nitrophenyl)hepta-1,6-diene-3,5-dione] | 157 to 163 |
| COc1ccc2cc(/C=C/C(=O)CC(=O)/C=C/c3ccc(O)cc3)ccc2c1 [CU166, (1E,6E)-1-(4-hydroxyphenyl)-7-(6-methoxynaphthalen-2-yl)hepta-1,6-diene-3,5-dione] | 217 to 220 |
| COc1ccc(/C=C/C(=O)CC(=O)/C=C/c2cc(OC)c(OC)c(OC)c2)cc1O [CU205, (1E,6E)-1-(3-hydroxy-4-methoxyphenyl)-7-(3,4,5-trimethoxyphenyl)hepta-1,6-diene-3,5-dione] | 195 to 200 |
| COc1cc(/C=C/C(=O)CC(=O)/C=C/c2cn(C)c3ccccc23)ccc1O [CU124, (1E,6E)-1-(4-hydroxy-3-methoxyphenyl)-7-(1-methyl-1H-indol-3-yl)hepta-1,6-diene-3,5-dione] | 173 to 175 |
